{"source": "PubChem BioAssay (NCI)", "assay_in_all_cases": "NCI tumour cell line growth inhibition, 48 h", "key": {"SK-OV-3 ovarian": {"system": "SK-OV-3 ovarian"}, "SN12K1 renal": {"system": "SN12K1 renal"}, "UACC-62 melanoma": {"system": "UACC-62 melanoma"}, "KM12 colon": {"system": "KM12 colon"}, "SN12C renal": {"system": "SN12C renal"}, "U251 CNS": {"system": "U251 CNS"}, "HOP-62 NSCLC": {"system": "HOP-62 NSCLC"}, "SK-MEL-5 melanoma": {"system": "SK-MEL-5 melanoma"}, "OVCAR-4 ovarian": {"system": "OVCAR-4 ovarian"}, "OVCAR-5 ovarian": {"system": "OVCAR-5 ovarian"}, "HCT-116 colon": {"system": "HCT-116 colon"}, "SW-620 colon": {"system": "SW-620 colon"}, "DMS 273 small cell lung": {"system": "DMS 273 small cell lung"}, "OVCAR-3 ovarian": {"system": "OVCAR-3 ovarian"}, "CAKI-1 renal": {"system": "CAKI-1 renal"}, "DMS 114 small cell lung": {"system": "DMS 114 small cell lung"}, "A549 NSCLC": {"system": "A549 NSCLC"}, "SF-295 CNS": {"system": "SF-295 CNS"}, "SNB-19 CNS": {"system": "SNB-19 CNS"}, "DLD-1 colon": {"system": "DLD-1 colon"}, "NCI/ADR-RES ovarian": {"system": "NCI/ADR-RES ovarian"}, "UACC-257 melanoma": {"system": "UACC-257 melanoma"}, "COLO 205 colon": {"system": "COLO 205 colon"}, "LOX IMVI melanoma": {"system": "LOX IMVI melanoma"}, "CCRF-CEM leukemia": {"system": "CCRF-CEM leukemia"}, "HL-60(TB) leukemia": {"system": "HL-60(TB) leukemia"}, "SK-MEL-2 melanoma": {"system": "SK-MEL-2 melanoma"}, "K-562 leukemia": {"system": "K-562 leukemia"}, "M19-MEL melanoma": {"system": "M19-MEL melanoma"}, "RXF 393 renal": {"system": "RXF 393 renal"}, "MALME-3M melanoma": {"system": "MALME-3M melanoma"}, "NCI-H460 lung": {"system": "NCI-H460 lung"}, "SK-MEL-28 melanoma": {"system": "SK-MEL-28 melanoma"}, "SF-539 CNS": {"system": "SF-539 CNS"}, "EKVX NSCLC": {"system": "EKVX NSCLC"}, "HT29 colon": {"system": "HT29 colon"}, "P388 leukemia": {"system": "P388 leukemia"}, "OVCAR-8 ovarian": {"system": "OVCAR-8 ovarian"}, "SF-268 CNS": {"system": "SF-268 CNS"}, "SNB-78 CNS": {"system": "SNB-78 CNS"}, "NCI-H23 lung": {"system": "NCI-H23 lung"}, "MCF7 breast": {"system": "MCF7 breast"}, "XF 498 CNS": {"system": "XF 498 CNS"}, "RPMI-8226 leukemia": {"system": "RPMI-8226 leukemia"}, "P388/ADR leukemia": {"system": "P388/ADR leukemia"}, "UO-31 renal": {"system": "UO-31 renal"}, "A498 renal": {"system": "A498 renal"}, "IGROV1 ovarian": {"system": "IGROV1 ovarian"}, "HCC-2998 colon": {"system": "HCC-2998 colon"}, "MOLT-4 leukemia": {"system": "MOLT-4 leukemia"}, "NCI-H522 lung": {"system": "NCI-H522 lung"}, "KM20L2 colon": {"system": "KM20L2 colon"}, "HOP-18 NSCLC": {"system": "HOP-18 NSCLC"}, "SNB-75 CNS": {"system": "SNB-75 CNS"}, "HCT-15 colon": {"system": "HCT-15 colon"}, "NCI-H226 lung": {"system": "NCI-H226 lung"}, "HOP-92 NSCLC": {"system": "HOP-92 NSCLC"}}, "note": "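Compound exposure: 48 hours, 5 concentrations, 96-well plates. TGI is the concentration that stops growth completely.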"}
{"compound": "O=Cc1c(Cn2ccnc2)c2cc([N+](=O)[O-])ccc2n1Cc1ccccc1", "values": [{"measurement": "TGI", "setting": "SK-OV-3 ovarian", "result": "> 100", "unit": "µM"}, {"measurement": "TGI", "setting": "SN12K1 renal", "result": "> 100", "unit": "µM"}, {"measurement": "TGI", "setting": "UACC-62 melanoma", "result": "> 100", "unit": "µM"}, {"measurement": "TGI", "setting": "KM12 colon", "result": "> 100", "unit": "µM"}, {"measurement": "TGI", "setting": "SN12C renal", "result": "> 100", "unit": "µM"}, {"measurement": "TGI", "setting": "U251 CNS", "result": "> 100", "unit": "µM"}, {"measurement": "TGI", "setting": "HOP-62 NSCLC", "result": 90.2, "unit": "µM"}, {"measurement": "TGI", "setting": "SK-MEL-5 melanoma", "result": "> 100", "unit": "µM"}, {"measurement": "TGI", "setting": "OVCAR-4 ovarian", "result": "> 100", "unit": "µM"}, {"measurement": "TGI", "setting": "OVCAR-5 ovarian", "result": "> 100", "unit": "µM"}, {"measurement": "TGI", "setting": "HCT-116 colon", "result": "> 100", "unit": "µM"}, {"measurement": "TGI", "setting": "SW-620 colon", "result": "> 100", "unit": "µM"}, {"measurement": "TGI", "setting": "DMS 273 small cell lung", "result": "> 100", "unit": "µM"}, {"measurement": "TGI", "setting": "OVCAR-3 ovarian", "result": "> 100", "unit": "µM"}, {"measurement": "TGI", "setting": "CAKI-1 renal", "result": 97.3, "unit": "µM"}, {"measurement": "TGI", "setting": "DMS 114 small cell lung", "result": "> 100", "unit": "µM"}, {"measurement": "TGI", "setting": "A549 NSCLC", "result": "> 100", "unit": "µM"}, {"measurement": "TGI", "setting": "SF-295 CNS", "result": "> 92.3", "unit": "µM"}, {"measurement": "TGI", "setting": "SNB-19 CNS", "result": "> 100", "unit": "µM"}, {"measurement": "TGI", "setting": "DLD-1 colon", "result": "> 100", "unit": "µM"}, {"measurement": "TGI", "setting": "NCI/ADR-RES ovarian", "result": "> 100", "unit": "µM"}, {"measurement": "TGI", "setting": "UACC-257 melanoma", "result": "> 100", "unit": "µM"}, {"measurement": "TGI", "setting": "COLO 205 colon", "result": "> 100", "unit": "µM"}, {"measurement": "TGI", "setting": "LOX IMVI melanoma", "result": "> 100", "unit": "µM"}, {"measurement": "TGI", "setting": "CCRF-CEM leukemia", "result": "> 100", "unit": "µM"}, {"measurement": "TGI", "setting": "HL-60(TB) leukemia", "result": "> 41.9", "unit": "µM"}, {"measurement": "TGI", "setting": "SK-MEL-2 melanoma", "result": "> 100", "unit": "µM"}, {"measurement": "TGI", "setting": "K-562 leukemia", "result": "> 100", "unit": "µM"}, {"measurement": "TGI", "setting": "M19-MEL melanoma", "result": "> 100", "unit": "µM"}, {"measurement": "TGI", "setting": "RXF 393 renal", "result": "> 100", "unit": "µM"}, {"measurement": "TGI", "setting": "MALME-3M melanoma", "result": "> 100", "unit": "µM"}, {"measurement": "TGI", "setting": "NCI-H460 lung", "result": "> 100", "unit": "µM"}, {"measurement": "TGI", "setting": "SK-MEL-28 melanoma", "result": "> 100", "unit": "µM"}, {"measurement": "TGI", "setting": "SF-539 CNS", "result": "> 100", "unit": "µM"}, {"measurement": "TGI", "setting": "EKVX NSCLC", "result": "> 100", "unit": "µM"}, {"measurement": "TGI", "setting": "HT29 colon", "result": "> 100", "unit": "µM"}, {"measurement": "TGI", "setting": "P388 leukemia", "result": "> 100", "unit": "µM"}, {"measurement": "TGI", "setting": "OVCAR-8 ovarian", "result": "> 100", "unit": "µM"}, {"measurement": "TGI", "setting": "SF-268 CNS", "result": "> 100", "unit": "µM"}, {"measurement": "TGI", "setting": "SNB-78 CNS", "result": "> 100", "unit": "µM"}, {"measurement": "TGI", "setting": "NCI-H23 lung", "result": "> 100", "unit": "µM"}, {"measurement": "TGI", "setting": "MCF7 breast", "result": "> 100", "unit": "µM"}, {"measurement": "TGI", "setting": "XF 498 CNS", "result": "> 100", "unit": "µM"}, {"measurement": "TGI", "setting": "RPMI-8226 leukemia", "result": "> 100", "unit": "µM"}, {"measurement": "TGI", "setting": "P388/ADR leukemia", "result": "> 100", "unit": "µM"}, {"measurement": "TGI", "setting": "UO-31 renal", "result": "> 100", "unit": "µM"}, {"measurement": "TGI", "setting": "A498 renal", "result": "> 100", "unit": "µM"}, {"measurement": "TGI", "setting": "IGROV1 ovarian", "result": "> 100", "unit": "µM"}, {"measurement": "TGI", "setting": "HCC-2998 colon", "result": "> 100", "unit": "µM"}, {"measurement": "TGI", "setting": "MOLT-4 leukemia", "result": "> 100", "unit": "µM"}, {"measurement": "TGI", "setting": "NCI-H522 lung", "result": "> 100", "unit": "µM"}, {"measurement": "TGI", "setting": "KM20L2 colon", "result": "> 100", "unit": "µM"}, {"measurement": "TGI", "setting": "HOP-18 NSCLC", "result": "> 100", "unit": "µM"}, {"measurement": "TGI", "setting": "SNB-75 CNS", "result": "> 100", "unit": "µM"}, {"measurement": "TGI", "setting": "HCT-15 colon", "result": "> 100", "unit": "µM"}, {"measurement": "TGI", "setting": "NCI-H226 lung", "result": "> 100", "unit": "µM"}, {"measurement": "TGI", "setting": "HOP-92 NSCLC", "result": "> 100", "unit": "µM"}]}
